Series [1] deals with MCF-7 human breast cancer cell line. As to the kind of experiment: MTS Assay in MCF-7 Cells (cell viability). Conditions: test peptides at 10 μM, 72 hours, relative to DMSO control. How it is done: (§1) Peptides and reference compound staurosporine (Selleckchem) were dissolved with DMSO at 10 mM stock. CellTiter 96® AQueous One Solution Reagent (MTS assay reagent) was purchased from Promega (Madison, Wis.). MCF-7 human breast cancer cell line was purchased from American Type Culture Collection (Manassas, Va.). MCF-7 cells were grown in EMEM Medium supplemented with 10% FBS and 0.01 mg/ml human recombinant insulin. 100 μg/ml penicillin and 100 μg/ml streptomycin were added to the culture medium. […] 5 μl of CellTiter 96® AQueous One Solution Reagent (MTS assay reagent) was added to each well and incubated at 37° C., 5% CO2 for 5 hours. Absorbance at 492 nm was recorded by Envision 2104 Multilabel Reader. Treatment with DMSO alone was used as the cell viability activity control.

In series [2] the test system is MDA-MB-231 human breast cancer cell line. As to the kind of experiment: MTS Assay in MDA-MB-231 Cells (cell viability). In kind it is cell-based. The following applies: 72 hours, relative to DMSO control; test concentration not given. As for the experimental part:
(§2) Test compounds and reference compound staurosporine (Selleckchem) were all dissolved with DMSO at 10 mM stock. […] Activity was calculated relative to DMSO control. […] Cell viability was 3% of the DMSO control value for Staurosporine (10 uM).

In another series the test system is Mouse 3T3-L1 adipocytes. The series is described as follows: Free Fatty Acid Levels in 3T3-L1 Adipocytes. Conditions: for Free Fatty Acid Levels in 3T3-L1 Adipocytes Expressed as a Percent Isoproterenol Control, Percent of Control Activity: test peptides 25 μM, 20-22 hours then isoproterenol (1 nM) 3 hours.
Series [3] concerns MDA-MB-231 human breast cancer cell line. The series is described as follows: Caspase 3/7 Activity in MDA-MB-231 Cells (Caspase-Glo 3/7 Assay). It is filed as cell-based. Conditions: test peptides at 10 μM, 18 hours, relative to DMSO control. As for the experimental part: The effect of the peptides on cell death/survival can be assessed using a caspase-3 assay. Peptides were dissolved with DMSO at 10 mM stock. […] Staurosporine (Selleckchem) was dissolved with DMSO at 1 mM stock. Caspase-Glo 3/7 Assay Reagent was purchased from Promega (Madison, Wis.). MDA-MB-231 human breast cancer cell line was purchased from American Type Culture Collection (Manassas, Va.). MDA-MB-231 cells were grown in DMEM Medium supplemented with 10% FBS. 100 μg/ml penicillin and 100 μg/ml streptomycin were added to the culture medium. […] 25 μl of Caspase-Glo 3/7 Assay Reagent was added to each well and incubated at 37° C., 5% CO2 for 1 hour. Luminescence for each sample well on the plate was measured by Envision 2104 Multilabel Reader (PerkinElmer, Santa Clara, Calif.). Activity was calculated relative to DMSO control.

Series [4] is described as follows: MTS Assay in MCF-7 Cells (cell viability). The following applies: human. How it is done:
as §1

The nature of series [5]: MTS Assay in MDA-MB-231 Cells (cell viability). In kind it is cell-based, human. Conditions: human; Staurosporine 10 uM, positive control, MDA-MB-231 cells; read-out: Cell viability, % of the DMSO control value. As for the experimental part: as §2

Square brackets hold non-standard residues; d marks the D form. Ends that are not written are not given here.

Method for Mouse 3T3-L1 adipocytes: Mouse 3T3-L1 adipocytes were seeded at 3,000 cells per well in 96-well plates in Pre-adipocyte Medium (Zen-Bio, Durham, N.C.) and grown to confluence at 37° C. in a humidified atmosphere of 5% CO2/95% air. Two days after confluence, cells were placed in Adipocyte Differentiation Medium (Zen-Bio, Durham, N.C.) and cultured for three additional days at 37° C. in a humidified atmosphere of 5% CO2/95% air. The culture media was then replaced with Adipocyte Maintenance Medium (Zen-Bio) and the cells maintained for an additional 9-12 days at 37° C. in a humidified atmosphere of 5% CO2/95% air with partial medium replacement every other day. Following 12-15 days' differentiation, test peptides were added to a final concentration of 25 μM and incubated for 20-22 hours in Adipocyte Maintenance Medium. After 20-22 hours, isoproterenol (1 nM) was added to all wells except untreated controls and test peptides were replenished. Cells were incubated for a further 3 hours in Assay Buffer (Zen-Bio). Free fatty acid concentrations in the media were determined using a Free Fatty Acid Assay Kit (Zen-Bio) according to the manufacturer's instructions using a plate reader (540 nm). Absorbance values were corrected for untreated background and expressed relative to isoproterenol treated cells. Treatment with isoproterenol (1 nM) alone was used as the free fatty acid level stimulatory control. The relative standard deviation of the isoproterenol control was <10%.

2 (MTHQSHAYHIVKPSP) [compound 2]: the “MTS Assay in MCF-7 Cells, Percent of Control Activity” value (“MTS Assay in MCF-7 Cells, Percent” for short) in series [1] came out at 71%. Also, the “MTS Assay in MDA-MB-231 Cells, Percent of Control Activity” value (“MTS Assay in MDA-MB-231 Cells, Percent” below) in series [2] was 85%. In addition, the “Free Fatty Acid Levels in 3T3-L1 Adipocytes Expressed as a Percent Isoproterenol Control, Percent of Control Activity” value in the series with Mouse 3T3-L1 adipocytes is given as 95%. Also, the “Caspase 3/7 Activity in MDA-MB-231 Cells, Percent of Control Activity” value in series [3] is 51%.

Regarding “3 (THQSHAYHIVKPSP; not fully specified) [compound 3]”, the “Free Fatty Acid Levels in 3T3-L1 Adipocytes Expressed as a Percent Isoproterenol Control, Percent of Control Activity” value with Mouse 3T3-L1 adipocytes is 118%.

Take 4 (THQSH[dA]YHIVKPSP) [compound 4]: in the series on Mouse 3T3-L1 adipocytes, the “Free Fatty Acid Levels in 3T3-L1 Adipocytes Expressed as a Percent Isoproterenol Control, Percent of Control Activity” value is on record as 134%.

For the compound 5 (HQSH[dA]YHIVKPSP) [compound 5], the “Free Fatty Acid Levels in 3T3-L1 Adipocytes Expressed as a Percent Isoproterenol Control, Percent of Control Activity” value in the series with Mouse 3T3-L1 adipocytes worked out at 111%.

7 (MWFDYFCMSPSIDEGLTLLV) [compound 7]: the “MTS Assay in MCF-7 Cells, Percent” value in series [1] was 63%. In addition, the “MTS Assay in MDA-MB-231 Cells, Percent” value in series [2] is listed as 81%. The “Free Fatty Acid Levels in 3T3-L1 Adipocytes Expressed as a Percent Isoproterenol Control, Percent of Control Activity” value with Mouse 3T3-L1 adipocytes was 104%. The “Caspase 3/7 Activity in MDA-MB-231 Cells, Percent of Control Activity” value in series [3] turned out to be 29%.

8 (WFDYFCMSPSIDEGLTLLV) [compound 8]: the “Free Fatty Acid Levels in 3T3-L1 Adipocytes Expressed as a Percent Isoproterenol Control, Percent of Control Activity” value in the series with Mouse 3T3-L1 adipocytes was found to be 45%.

With 9 (WFDYFCMSPSIDEGLTL) [compound 9], in the series on Mouse 3T3-L1 adipocytes, the “Free Fatty Acid Levels in 3T3-L1 Adipocytes Expressed as a Percent Isoproterenol Control, Percent of Control Activity” value was 35%.

As to 10 (WFDYFAMSPSADEGLTL) [compound 10], in the series with Mouse 3T3-L1 adipocytes, the “Free Fatty Acid Levels in 3T3-L1 Adipocytes Expressed as a Percent Isoproterenol Control, Percent of Control Activity” value was 55%.

In the case of 12 (MVKGDSKYSEACRRVK) [compound 12], in series [1], the “MTS Assay in MCF-7 Cells, Percent” value was determined as 50%. Further, the “MTS Assay in MDA-MB-231 Cells, Percent” value in series [2] is 80%. The “Free Fatty Acid Levels in 3T3-L1 Adipocytes Expressed as a Percent Isoproterenol Control, Percent of Control Activity” value in the series with Mouse 3T3-L1 adipocytes is recorded as 135%. In series [3], the “Caspase 3/7 Activity in MDA-MB-231 Cells, Percent of Control Activity” value is 52%.

13 (VKGDSKYSEACRRVK) [compound 13]: the “Free Fatty Acid Levels in 3T3-L1 Adipocytes Expressed as a Percent Isoproterenol Control, Percent of Control Activity” value in the series on Mouse 3T3-L1 adipocytes is given as 113%.

For the compound 14 (VKGDSKYSEACRRV) [compound 14], the “Free Fatty Acid Levels in 3T3-L1 Adipocytes Expressed as a Percent Isoproterenol Control, Percent of Control Activity” value in the series with Mouse 3T3-L1 adipocytes was found to be 112%.

As to 15 (VKGDSKYSEACR) [compound 15], the “Free Fatty Acid Levels in 3T3-L1 Adipocytes Expressed as a Percent Isoproterenol Control, Percent of Control Activity” value in the series on Mouse 3T3-L1 adipocytes was found to be 128%.

“17 (MVLFFRSSKLQYGRLFRSLVG) [compound 17]”: the “MTS Assay in MCF-7 Cells, Percent” value in series [1] is 40%. In addition, the “MTS Assay in MDA-MB-231 Cells, Percent” value in series [2] was 75%. Further, in the series on Mouse 3T3-L1 adipocytes, the “Free Fatty Acid Levels in 3T3-L1 Adipocytes Expressed as a Percent Isoproterenol Control, Percent of Control Activity” value was found to be 75%. Moreover, the “Caspase 3/7 Activity in MDA-MB-231 Cells, Percent of Control Activity” value in series [3] amounted to 43%.

18 (VLFFRSSKLQYGRLFRSLVG) [compound 18]: the “Free Fatty Acid Levels in 3T3-L1 Adipocytes Expressed as a Percent Isoproterenol Control, Percent of Control Activity” value in the series on Mouse 3T3-L1 adipocytes was 84%.

As to 19 (VLFFRSSKLQYGRLFRSLA) [compound 19], the “Free Fatty Acid Levels in 3T3-L1 Adipocytes Expressed as a Percent Isoproterenol Control, Percent of Control Activity” value in the series on Mouse 3T3-L1 adipocytes turned out to be 95%.

Regarding 20 (LFFRSSKLQYGRLFRSA) [compound 20], in the series on Mouse 3T3-L1 adipocytes, the “Free Fatty Acid Levels in 3T3-L1 Adipocytes Expressed as a Percent Isoproterenol Control, Percent of Control Activity” value was found to be 73%.

As to 22 (MVWLRLSGSKVEWVWG) [compound 22], the “MTS Assay in MCF-7 Cells, Percent” value in series [1] was 47%. The “MTS Assay in MDA-MB-231 Cells, Percent” value in series [2] was 75%. Besides, in the series on Mouse 3T3-L1 adipocytes, the “Free Fatty Acid Levels in 3T3-L1 Adipocytes Expressed as a Percent Isoproterenol Control, Percent of Control Activity” value is 93%. Also, the “Caspase 3/7 Activity in MDA-MB-231 Cells, Percent of Control Activity” value in series [3] came to 31%.

For 23 (VWLRLSGSKVEWVWG) [compound 23], in the series with Mouse 3T3-L1 adipocytes, the “Free Fatty Acid Levels in 3T3-L1 Adipocytes Expressed as a Percent Isoproterenol Control, Percent of Control Activity” value turned out to be 71%.

Turning to “24 (VWLRLSGSKVEWVW; not fully specified) [compound 24]”, in the series on Mouse 3T3-L1 adipocytes, the “Free Fatty Acid Levels in 3T3-L1 Adipocytes Expressed as a Percent Isoproterenol Control, Percent of Control Activity” value worked out at 81%.

For the compound 25 ([dA]WLRLSGSKVEWV) [compound 25], in the series on Mouse 3T3-L1 adipocytes, the “Free Fatty Acid Levels in 3T3-L1 Adipocytes Expressed as a Percent Isoproterenol Control, Percent of Control Activity” value is 93%.

As for `CN[C@@H]1C[C@H]2O[C@@](C)([C@@H]1OC)n1c3ccccc3c3c4c(c5c6ccccc6n2c5c31)C(=O)NC4` [staurosporine, reference compound], the viability at 72 h, 10 µM in series [4] was < 5%; in series [5] it was 3%.

Take insulin [reference compound]: in the series with Mouse 3T3-L1 adipocytes (insulin 100 nM, positive control), the “Free fatty acid levels, % of the isoproterenol control value” is on record as < 5%.

The values above are taken from patent US20220305079A1, “THERAPEUTIC PEPTIDES” (COHBAR, INC., priority 2019, published 2022).
